Data published in patent US20200172473A1, “DUAL MODULATORS OF FARNESOID X RECEPTOR AND SOLUBLE EPOXIDE HYDROLASE” (JOHANN WOLFGANG GOETHE-UNIVERSITÄT FRANKFURT AM MAIN, priority 2017, published 2020).

Target: T1, sEH (Mus musculus, UniProt P34914)
T1 construct: pilot in vivo study of the compound in male wild-type C57BL6/J mice; from tissue; host or cells: male wild-type C57BL/6J mice, in vivo; read-out in plasma
T1 sequence (P34914 1-554): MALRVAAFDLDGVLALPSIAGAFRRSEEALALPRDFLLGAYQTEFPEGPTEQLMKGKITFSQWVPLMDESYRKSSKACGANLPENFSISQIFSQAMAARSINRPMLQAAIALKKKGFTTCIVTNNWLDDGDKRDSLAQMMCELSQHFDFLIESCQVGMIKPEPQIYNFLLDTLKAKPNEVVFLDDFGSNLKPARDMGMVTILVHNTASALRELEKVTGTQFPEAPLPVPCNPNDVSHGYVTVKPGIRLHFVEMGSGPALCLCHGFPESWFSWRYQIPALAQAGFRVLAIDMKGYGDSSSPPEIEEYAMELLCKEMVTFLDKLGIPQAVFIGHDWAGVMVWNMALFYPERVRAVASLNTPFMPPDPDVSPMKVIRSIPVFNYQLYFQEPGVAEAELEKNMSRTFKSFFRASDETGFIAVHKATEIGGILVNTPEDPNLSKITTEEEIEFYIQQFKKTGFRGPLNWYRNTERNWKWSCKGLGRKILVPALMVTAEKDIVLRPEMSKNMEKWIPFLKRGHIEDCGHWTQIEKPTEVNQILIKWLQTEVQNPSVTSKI
Test: EET/DHET ratio in mouse plasma
Type: in vivo
Conditions: mice, 10 mg/kg p.o., 8 h post dose
Procedure: To record a pharmacokinetic profile and to evaluate pharmacodynamic data concerning FXR activation and sEH inhibition in vivo, six mice received a single dose of 57 (p.o., 10 mg/kg body weight). Three additional animals served as vehicle control.
To evaluate pharmacodynamic effects of 57, mouse plasma was analyzed for EET/DHET ratio, and FXR target gene expression was determined in mouse livers 8 hours post application (FIG. 5B). […] Expression of the PPARγ target gene fatty acid transport protein (FATP) was not affected by 57 in vivo.
Blood and liver sampling: At six time points (15 min, 30 min, 60 min, 120 min, 240 min and 480 min after application of 57), blood (20 μl) of the six restrained and conscious mice was obtained from the lateral tail vein. For the last time-point (480 min), mice were anesthetized under isoflurane and blood (˜500 μl) was obtained by retro-orbital puncture. A part of the blood was centrifuged (6000 rpm, 10 min, +4° C.) to obtain plasma for quantification of EET/DHET ratio and stored at −80° C. until further evaluation. […]
EET/DHET ratio analysis from mouse plasma samples (Determination of Epoxyeicosatrienoicacids (EETs) and their metabolites Dihydroxyepoxyeicosatrienoicacids (DHETs) by LCMS/MS): 8.9-EET, 11.12-EET and their dehydro-metabolites content of the extracted samples were analyzed employing liquid chromatography tandem mass spectroscopy (LC-MS/MS). […]

CC(C)(C)c1ccc(C(=O)NCc2ccc(NS(C)(=O)=O)cc2Cl)cc1 [compound 57, 4-(tert-Butyl)-N-(2-chloro-4-(methylsulfonamido)benzyl)benzamide] was tested, and the “11,12-EET/11,12-DHET ratio in plasma” value (vehicle 0.15±0.01) was 0.25±0.03 and the “8,9-EET/8,9-DHET ratio in plasma” value (vehicle 0.40±0.03) was 0.63±0.03.
